The values below come from patent US10844038B2, “1,2-dithiolane compounds useful in neuroprotection, autoimmune and cancer diseases and conditions” (SABILA BIOSCIENCES LLC, priority 2016, dated 2020).

Test [1] concerns the target BLK (Homo sapiens (Human), UniProt P51451). Nature of the test: Rabbit reticulocyte lysate assay (KinaseSeeker competition binding). The settings on record: read-out: IC50 Activity Levels Against SRC Family Kinases: BLK.
For test [2], the target named is CSK (Homo sapiens (Human), UniProt P41240). Described as above. The settings on record: at 1 μM.
The target in test [3] is FYN (Homo sapiens (Human), UniProt P06241). The test is described as above. The settings on record: at 1 μM.
The target of test [4] is HCK (Homo sapiens (Human), UniProt P08631). Described as above. Particulars: read-out: IC50 Activity Levels Against SRC Family Kinases: HCK.
Test [5] concerns the target LCK (Homo sapiens (Human), UniProt P06239). The description is as above. Particulars: read-out: IC50 Activity Levels Against SRC Family Kinases: LCK.
Test [6] has as its target LYN (Homo sapiens (Human), UniProt P07948). The test is described as above. Particulars: at 1 μM.
The target in test [7] is SRC (Homo sapiens (Human), UniProt P12931). The description is as above. The settings on record: read-out: IC50 Activity Levels Against SRC Family Kinases: SRC.
The target in test [8] is ERK1 (Homo sapiens (Human), UniProt P27361). The experiment in a line: KINOMEscan competition binding assay (Kd). Particulars: read-out: Kd Values Against MAPK Pathway Kinases: ERK1.
Test [9] addresses MEK3 (Homo sapiens (Human), UniProt P46734). Nature of the test: KINOMEscan competition binding assay (Kd). Particulars: read-out: Kd Values Against MEK Kinases Isoforms: MEK3.
The target in test [10] is MEK4 (Homo sapiens (Human), UniProt P45985). The experiment in a line: KINOMEscan competition binding assay (Kd). Particulars: read-out: Kd Values Against MEK Kinases Isoforms: MEK4.
Sequence of MEK4 (P45985 whole entry, canonical isoform): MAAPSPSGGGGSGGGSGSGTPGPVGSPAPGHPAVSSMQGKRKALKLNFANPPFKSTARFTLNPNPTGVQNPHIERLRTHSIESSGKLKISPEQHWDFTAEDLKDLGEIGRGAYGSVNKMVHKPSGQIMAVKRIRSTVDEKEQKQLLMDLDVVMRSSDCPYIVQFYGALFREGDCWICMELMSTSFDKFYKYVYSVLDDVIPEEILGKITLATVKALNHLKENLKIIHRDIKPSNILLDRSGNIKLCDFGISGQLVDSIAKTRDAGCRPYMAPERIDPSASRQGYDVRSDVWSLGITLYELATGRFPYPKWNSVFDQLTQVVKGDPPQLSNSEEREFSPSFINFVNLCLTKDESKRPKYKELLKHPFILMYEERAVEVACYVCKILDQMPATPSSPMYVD

Sequence of HCK (P08631 whole entry): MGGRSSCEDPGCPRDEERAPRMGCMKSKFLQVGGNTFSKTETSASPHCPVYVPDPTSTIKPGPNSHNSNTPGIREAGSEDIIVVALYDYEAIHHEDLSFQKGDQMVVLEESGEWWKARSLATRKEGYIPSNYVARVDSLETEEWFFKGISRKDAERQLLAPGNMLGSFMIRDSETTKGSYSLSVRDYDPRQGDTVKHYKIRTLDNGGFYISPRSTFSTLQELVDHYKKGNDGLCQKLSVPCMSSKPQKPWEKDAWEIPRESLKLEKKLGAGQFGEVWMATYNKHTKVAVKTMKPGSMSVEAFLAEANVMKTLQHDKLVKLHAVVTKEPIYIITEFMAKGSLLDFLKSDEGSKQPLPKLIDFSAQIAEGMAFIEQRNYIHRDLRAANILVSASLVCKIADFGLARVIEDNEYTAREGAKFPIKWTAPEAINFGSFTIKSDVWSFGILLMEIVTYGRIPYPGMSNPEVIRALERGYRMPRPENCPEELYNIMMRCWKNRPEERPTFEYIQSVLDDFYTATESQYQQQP
Sequence of FYN (P06241 whole entry): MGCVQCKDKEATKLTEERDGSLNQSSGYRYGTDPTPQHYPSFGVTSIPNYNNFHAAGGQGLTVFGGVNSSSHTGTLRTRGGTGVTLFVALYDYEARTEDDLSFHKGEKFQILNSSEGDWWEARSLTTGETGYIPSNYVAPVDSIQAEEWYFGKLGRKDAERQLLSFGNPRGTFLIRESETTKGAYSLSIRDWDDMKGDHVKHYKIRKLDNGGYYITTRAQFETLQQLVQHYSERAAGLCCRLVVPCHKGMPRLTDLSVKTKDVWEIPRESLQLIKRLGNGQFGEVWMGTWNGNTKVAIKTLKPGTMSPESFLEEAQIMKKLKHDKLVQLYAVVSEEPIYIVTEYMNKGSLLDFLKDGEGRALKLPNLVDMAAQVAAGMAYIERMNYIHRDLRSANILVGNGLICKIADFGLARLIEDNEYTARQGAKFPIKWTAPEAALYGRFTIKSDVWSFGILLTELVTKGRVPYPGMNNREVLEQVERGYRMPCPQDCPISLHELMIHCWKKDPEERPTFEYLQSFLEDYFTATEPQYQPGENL
Sequence of LCK (P06239 whole entry): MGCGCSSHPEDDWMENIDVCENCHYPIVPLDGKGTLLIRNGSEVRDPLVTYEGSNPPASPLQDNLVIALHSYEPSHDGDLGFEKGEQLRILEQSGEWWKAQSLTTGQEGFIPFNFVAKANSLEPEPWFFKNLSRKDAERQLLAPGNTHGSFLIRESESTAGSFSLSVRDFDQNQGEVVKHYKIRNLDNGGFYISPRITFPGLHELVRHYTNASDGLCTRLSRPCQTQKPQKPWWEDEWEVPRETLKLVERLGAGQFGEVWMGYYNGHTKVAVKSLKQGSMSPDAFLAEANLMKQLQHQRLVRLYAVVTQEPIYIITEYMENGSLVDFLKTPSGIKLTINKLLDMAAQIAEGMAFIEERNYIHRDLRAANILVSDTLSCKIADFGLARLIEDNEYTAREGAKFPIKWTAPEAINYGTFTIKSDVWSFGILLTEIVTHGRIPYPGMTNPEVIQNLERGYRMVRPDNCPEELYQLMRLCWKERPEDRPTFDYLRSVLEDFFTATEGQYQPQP
Sequence of LYN (P07948 whole entry): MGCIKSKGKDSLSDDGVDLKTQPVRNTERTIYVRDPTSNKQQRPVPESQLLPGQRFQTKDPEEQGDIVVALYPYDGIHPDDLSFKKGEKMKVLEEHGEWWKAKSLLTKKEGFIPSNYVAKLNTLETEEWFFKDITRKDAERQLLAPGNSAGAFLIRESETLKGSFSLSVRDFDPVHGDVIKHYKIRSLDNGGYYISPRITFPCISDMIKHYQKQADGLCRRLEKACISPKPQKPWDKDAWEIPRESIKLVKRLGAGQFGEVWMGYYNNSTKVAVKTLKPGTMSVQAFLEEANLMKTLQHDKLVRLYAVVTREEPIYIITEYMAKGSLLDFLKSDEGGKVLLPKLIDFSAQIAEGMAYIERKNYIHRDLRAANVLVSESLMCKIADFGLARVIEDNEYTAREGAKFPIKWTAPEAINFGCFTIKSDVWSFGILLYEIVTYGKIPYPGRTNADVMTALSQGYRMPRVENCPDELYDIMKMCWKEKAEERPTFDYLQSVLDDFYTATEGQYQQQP
Sequence of SRC (P12931 whole entry, looked up): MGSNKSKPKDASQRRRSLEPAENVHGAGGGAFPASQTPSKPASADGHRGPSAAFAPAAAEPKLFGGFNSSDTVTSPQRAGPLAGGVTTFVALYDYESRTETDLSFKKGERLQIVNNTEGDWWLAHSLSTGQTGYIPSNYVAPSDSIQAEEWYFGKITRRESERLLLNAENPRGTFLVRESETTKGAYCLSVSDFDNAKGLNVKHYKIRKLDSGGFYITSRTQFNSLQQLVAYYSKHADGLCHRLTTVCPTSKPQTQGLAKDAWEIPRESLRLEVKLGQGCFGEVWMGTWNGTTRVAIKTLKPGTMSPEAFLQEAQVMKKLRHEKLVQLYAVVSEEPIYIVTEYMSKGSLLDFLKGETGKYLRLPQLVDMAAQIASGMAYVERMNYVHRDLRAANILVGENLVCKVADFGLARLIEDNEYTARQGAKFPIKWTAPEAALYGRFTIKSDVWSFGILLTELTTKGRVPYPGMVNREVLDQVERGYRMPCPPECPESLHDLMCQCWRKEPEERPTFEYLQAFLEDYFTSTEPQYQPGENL
Sequence of ERK1 (P27361 whole entry, canonical isoform): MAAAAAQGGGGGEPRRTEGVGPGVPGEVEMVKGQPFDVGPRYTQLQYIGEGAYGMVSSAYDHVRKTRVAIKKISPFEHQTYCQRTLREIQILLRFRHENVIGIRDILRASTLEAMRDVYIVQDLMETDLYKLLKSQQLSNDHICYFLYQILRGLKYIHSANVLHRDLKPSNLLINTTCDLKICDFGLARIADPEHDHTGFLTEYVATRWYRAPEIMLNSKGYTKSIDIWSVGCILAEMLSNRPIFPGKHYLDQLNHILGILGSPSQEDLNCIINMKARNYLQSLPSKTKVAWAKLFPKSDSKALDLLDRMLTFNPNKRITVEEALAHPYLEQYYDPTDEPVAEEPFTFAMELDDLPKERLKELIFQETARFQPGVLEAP
Sequence of MEK3 (P46734 whole entry, canonical isoform): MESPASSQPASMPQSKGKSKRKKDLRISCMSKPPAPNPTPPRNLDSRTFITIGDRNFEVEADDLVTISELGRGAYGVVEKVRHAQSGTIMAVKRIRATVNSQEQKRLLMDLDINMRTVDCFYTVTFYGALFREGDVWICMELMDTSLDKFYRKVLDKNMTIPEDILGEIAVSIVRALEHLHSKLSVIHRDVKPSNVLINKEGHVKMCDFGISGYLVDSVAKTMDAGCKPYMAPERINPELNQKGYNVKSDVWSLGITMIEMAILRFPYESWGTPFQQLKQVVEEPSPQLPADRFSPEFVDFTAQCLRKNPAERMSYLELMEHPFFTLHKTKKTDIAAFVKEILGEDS
Sequence of BLK (P51451 whole entry): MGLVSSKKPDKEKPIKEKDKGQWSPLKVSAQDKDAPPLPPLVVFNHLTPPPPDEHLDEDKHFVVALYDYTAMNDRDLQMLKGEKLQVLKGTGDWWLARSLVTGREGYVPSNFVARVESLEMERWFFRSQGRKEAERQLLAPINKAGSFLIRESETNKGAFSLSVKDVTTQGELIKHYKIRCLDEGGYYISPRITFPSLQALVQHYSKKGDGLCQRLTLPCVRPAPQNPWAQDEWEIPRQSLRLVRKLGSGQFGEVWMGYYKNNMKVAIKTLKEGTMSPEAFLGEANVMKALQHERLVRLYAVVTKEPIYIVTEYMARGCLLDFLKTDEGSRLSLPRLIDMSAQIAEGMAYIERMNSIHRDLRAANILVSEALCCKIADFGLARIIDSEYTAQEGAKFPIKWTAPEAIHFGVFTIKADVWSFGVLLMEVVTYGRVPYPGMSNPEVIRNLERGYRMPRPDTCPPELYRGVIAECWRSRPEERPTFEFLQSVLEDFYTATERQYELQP
Sequence of CSK (P41240 whole entry): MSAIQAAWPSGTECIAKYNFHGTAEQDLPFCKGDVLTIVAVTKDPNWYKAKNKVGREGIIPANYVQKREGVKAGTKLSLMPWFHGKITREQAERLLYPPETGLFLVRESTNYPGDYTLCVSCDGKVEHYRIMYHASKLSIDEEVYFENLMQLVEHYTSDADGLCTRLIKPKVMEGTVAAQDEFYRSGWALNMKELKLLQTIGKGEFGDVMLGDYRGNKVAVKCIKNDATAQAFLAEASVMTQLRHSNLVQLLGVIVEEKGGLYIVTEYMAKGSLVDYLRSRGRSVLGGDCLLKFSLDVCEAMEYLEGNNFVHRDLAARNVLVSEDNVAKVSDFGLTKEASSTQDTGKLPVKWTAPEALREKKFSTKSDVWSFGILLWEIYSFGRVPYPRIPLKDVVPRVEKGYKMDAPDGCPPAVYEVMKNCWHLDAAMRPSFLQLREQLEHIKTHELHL

As for `Nc1ncnc2c1c(-c1ccc(Oc3ccccc3)cc1)nn2C[C@H]1SSC[C@@H]1O` [43 B.], the IC50 in test [1], in test [4], in [5] and in test [7] was 100 to 999 nM each time. The “% Inhibition Against SRC Family Kinases: CSK” value in test [2] is reported as 70%. The “% Inhibition Against SRC Family Kinases: FYN” value in test [3] is on record as 77%. The “% Inhibition Against SRC Family Kinases: LYN” value in test [6] worked out at 57%.
For `Nc1ncnc2c1c(-c1ccc(Oc3ccccc3)cc1)nn2C[C@H]1SSC[C@H]1O` [46 B.], the Kd in [8], in [9] and in [10] was 1000 to 10000 nM in each case.

As usually defined, the IC50 is the concentration that gives 50% inhibition. One may read the Kd as the concentration at which binding is half-saturated.
